# Test results published in patent US7803801B2, “Aminopyridine compounds having Syk inhibitory activity” (Japan Tobacco, Inc., priority 2005, dated 2010).
# Where a name gives a salt, the structure may show the parent alone.
# Molecular target: GST-Syk Full Protein (human) (Homo sapiens, UniProt P43405)
# Experiment: Syk kinase inhibition test (HTRF method)
# Type: biochemical
# Details: Tables 1-x, compounds A; read-out: sykHTRF ave IC50
# Protocol: Syk Kinase Inhibition Test (HTRF Method)
# After the compounds were serially diluted with dimethylsulfoxide (DMSO), 10 μL of those 10-fold diluted with kinase buffer (20 mM HEPES pH 7.0, 10 mM MgCl2, 50 mM NaCl, 1 mM 2-ME, 0.05% BSA) was added to opti-plate HTRF-96 (Packard) (final DMSO concentration: 2%). 20 μL of a substrate solution (kinase buffer as mentioned above containing Syk Specific-Peptide Substrate Biot-EDPDYEWPSA-NH2 (Peptide Laboratory) 625 nM, 250 μM ATP (SIGMA) was added (final substrate concentration 250 nM, 100 μM ATP), and further 20 μL of an enzyme solution (kinase buffer as mentioned above containing GST-Syk Full Protein (human) 16 nM) (final concentration 6.4 nM) was added and the mixture was immediately stirred with a plate shaker to start enzyme reaction. After reacted at room temperature (20 to 25° C.) for 30 minutes, the enzyme reaction was terminated by adding 100 μL/well of a buffer for terminating and detecting the reaction (30 mM HEPES pH 7.0, 150 mM KF, 0.15% BSA, 0.075% Tween-20, 75 mM EDTA) containing HTRF reagent (5 μg/ml XL665-Streptavidin (CIS bio), 170 ng/ml Eu(K)-anti-PhosphoTyrosin, PT-66 (CIS bio)) (final concentration 20 mM HEPES pH 7.0, 100 mM KF, 0.1% BSA, 0.05% Tween-20, 50 mM EDTA). After allowed to stand still at room temperature for 1 hour, inhibitory effect of a compound against Syk kinase enzymatic activity was evaluated by measuring 665/620 fluorescence ratio to excitation light at 337 nm by ARVO (Wallac).
row,SMILES,IC50 [nM]
1,Cc1ccnc(Nc2cccc(-c3cnc(CN4CCC[C@H]4C(=O)N(C)C)s3)n2)c1 [Compound A-664],100 to 1000
2,"Cc1ccnc(Nc2cccc(-c3cnc(N4CCC(N(C)S(C)(=O)=O)CC4)s3)n2)c1 [Compound A-485, N-methyl-N-(1-{5-[6-(4-methylpyridin-2-ylamino)pyridin-2-yl]thiazol-2-yl}piperidin-4-yl)methanesulfonamide]",< 100
3,COC(=O)N(CCCC(=O)O)Cc1ncc(-c2cccc(Nc3cc(C)ccn3)n2)s1 [Compound A-585],100 to 1000
4,"Cc1ccnc(Nc2cccc(-c3cnc(N4CCC5(CC4)CC5C(=O)O)s3)n2)c1 (stereo not drawn) [Compound A-712, 6-{5-[6-(4-methylpyridin-2-ylamino)pyridin-2-yl]thiazol-2-yl}-6-azaspiro[2.5]octane-1-carboxylic acid]",< 100
5,"Cc1ccnc(Nc2cccc(-c3cnc(NC(C)C)s3)n2)c1 [Compound A-693, N-isopropyl-N-{5-[6-(4-methylpyridin-2-ylamino)pyridin-2-yl]thiazol-2-yl}amine]",< 100
6,"CC(C)(C(=O)O)C1CCN(c2ncc(-c3cccc(Nc4ccccn4)n3)s2)CC1 [Compound A-714, 2-methyl-2-(1-{5-[6-(pyridin-2-ylamino)pyridin-2-yl]thiazol-2-yl}piperidin-4-yl)propionic acid]",< 100
7,"N#Cc1ccnc(Nc2cccc(-c3cnc(N4CCC(CC(=O)O)CC4)s3)n2)c1 [Compound A-650, (1-{5-[6-(4-cyanopyridin-2-ylamino)pyridin-2-yl]thiazol-2-yl}piperidin-4-yl)acetic acid dihydrochloride]",< 100
8,"O=C(O)CC1CCN(c2ncc(-c3cccc(Nc4cc(CCO)ccn4)n3)s2)CC1 [Compound A-681, [1-(5-{6-[4-(2-hydroxyethyl)pyridin-2-ylamino]pyridin-2-yl}thiazol-2-yl)piperidin-4-yl]acetic acid dihydrochloride]",< 100
9,Cc1ccnc(Nc2cccc(-c3cnc(N(C)C4CCC(C(=O)N(C)C)CC4)s3)n2)c1 (stereo not drawn) [Compound A-447],100 to 1000
10,"CCC(C(=O)O)C1CCN(c2ncc(-c3cccc(Nc4cc(C)ccn4)n3)s2)CC1 (stereo not drawn) [Compound A-698, 2-(1-{5-[6-(4-methylpyridin-2-ylamino)pyridin-2-yl]thiazol-2-yl}piperidin-4-yl)butyric acid]",< 100
11,"COc1ccnc(Nc2cccc(-c3cnc(N4CCC(CC(=O)O)CC4)s3)n2)c1 [Compound A-637, (1-{5-[6-(4-methoxypyridin-2-ylamino)pyridin-2-yl]thiazol-2-yl}piperidin-4-yl)acetic acid dihydrochloride]",< 100
12,"Cc1ccnc(Nc2cccc(-c3cnc(N4C5CCC4CC(CC(=O)O)C5)s3)n2)c1 (stereo not drawn) [Compound A-649, (8-{5-[6-(4-methylpyridin-2-ylamino)pyridin-2-yl]thiazol-2-yl}-8-azabicyclo[3.2.1]oct-3-yl)acetic acid]",< 100
13,"O=C(O)C(F)C1CCN(c2ncc(-c3cccc(Nc4ccccn4)n3)s2)CC1 (stereo not drawn) [Compound A-716, fluoro-(1-{5-[6-(pyridin-2-ylamino)pyridin-2-yl]thiazol-2-yl}piperidin-4-yl)acetic acid dihydrochloride]",< 100
14,Cc1ccnc(Nc2cccc(-c3cnc(N4CCN(CC(=O)OC(C)(C)C)C(=O)C4)s3)n2)c1 [Compound A-463],100 to 1000
15,"CC(C)(C(=O)O)C1CCN(c2ncc(-c3cccc(Nc4cnccn4)n3)s2)CC1 [Compound A-707, 2-methyl-2-(1-{5-[6-(pyrazin-2-ylamino)pyridin-2-yl]thiazol-2-yl}piperidin-4-yl)propionic acid dihydrochloride]",< 100
16,"CC(C)(C)c1ccnc(Nc2cccc(-c3cnc(N4CCC(CC(=O)O)CC4)s3)n2)c1 [Compound A-710, (1-{5-[6-(4-tert-butylpyridin-2-ylamino)pyridin-2-yl]thiazol-2-yl}piperidin-4-yl)acetic acid dihydrochloride]",< 100
17,Cc1ccnc(Nc2cccc(-c3cnc(N(C)C4CCN(C(=O)C(C)(C)C)CC4)s3)n2)c1 [Compound A-671],100 to 1000

# Second part, the molecule after the results:
row,IC50 [nM],SMILES
1,100 to 1000,CN(c1ncc(-c2cccc(Nc3ccccn3)n2)s1)C(C)(C)c1ccc(C(=O)O)cc1 [Compound A-691]
2,< 100,"Cc1ccnc(Nc2cccc(-c3cnc(NCCCCC(=O)O)s3)n2)c1 [Compound A-644, 5-{5-[6-(4-methylpyridin-2-ylamino)pyridin-2-yl]thiazol-2-ylamino}pentanoic acid]"
3,< 100,"Cc1ccnc(Nc2cccc(-c3cnc(N4CCc5cc(CC(=O)O)ccc5C4)s3)n2)c1 [Compound A-641, (2-{5-[6-(4-methylpyridin-2-ylamino)pyridin-2-yl]thiazol-2-yl}-1,2,3,4-tetrahydroisoquinolin-6-yl)acetic acid]"
4,< 100,"CN(Cc1ccc(CC(=O)O)cc1)c1ncc(-c2cccc(Nc3cc(C(F)(F)F)ccn3)n2)s1 [Compound A-651, {4-[(N-methyl-N-{5-[6-(4-trifluoromethylpyridin-2-ylamino)pyridin-2-yl]thiazol-2-yl}amino)methyl]phenyl}acetic acid]"
5,< 100,"Cc1ccnc(Nc2cccc(-c3cnc(CN(C)C(C)(C)C(N)=O)s3)n2)c1 [Compound A-720, 2-methyl-2-(N-methyl-N-{5-[6-(4-methylpyridin-2-ylamino)pyridin-2-yl]thiazol-2-ylmethyl}amino)propionamide]"
6,100 to 1000,COC(=O)N(CC(=O)O)Cc1ncc(-c2cccc(Nc3cc(C)ccn3)n2)s1 [Compound A-583]
7,100 to 1000,Cc1ccnc(Nc2cccc(-c3cnc(N(CC(=O)NCC(F)(F)F)C4CCCCC4)s3)n2)c1 [Compound A-665]
8,100 to 1000,Cc1ccnc(Nc2cccc(-c3cnc(NCCc4ccccc4)s3)n2)c1 [Compound A-701]
9,100 to 1000,Cc1ccnc(Nc2cccc(-c3cnc(N(C)c4ccc(/C=C/C(=O)O)cc4)s3)n2)c1 [Compound A-618]
10,< 100,"CN(C[C@H]1CC[C@H](C(=O)O)CC1)c1ncc(-c2cccc(Nc3ccccn3)n2)s1 [Compound A-699, trans-4-[(N-methyl-N-{5-[6-(pyridin-2-ylamino)pyridin-2-yl]thiazol-2-yl}amino)methyl]cyclohexanecarboxylic acid dihydrochloride]"
11,< 100,"Cc1ccnc(Nc2cccc(-c3cnc(N(C)CCC/C=C(\F)C(=O)O)s3)n2)c1 [Compound A-647, (Z)-2-fluoro-6-(N-methyl-N-{5-[6-(4-methylpyridin-2-ylamino)pyridin-2-yl]thiazol-2-yl}amino)hex-2-enoic acid dihydrochloride]"

# Same assay, conditions: Tables 2-x, thiophene compounds B; read-out: sykHTRK ave IC50
row,IC50 [nM],SMILES
1,100 to 1000,Cc1ccnc(Nc2cccc(-c3ccc(CNC(=O)[C@H]4CC[C@H](C(=O)O)CC4)s3)n2)c1 [Compound B-121]
2,< 100,"CC(=O)N(CCC(=O)O)Cc1ccc(-c2cccc(Nc3cc(C)ccn3)n2)s1 [Compound B-124, 3-(N-acetyl-N-{5-[6-(4-methylpyridin-2-ylamino)pyridin-2-yl]thiophen-2-ylmethyl}amino)propionic acid hydrochloride]"
3,100 to 1000,Cc1ccnc(Nc2cccc(-c3ccc(CN4CCc5cc(C(=O)O)ccc5C4)s3)n2)c1 [Compound B-107]
4,100 to 1000,Cc1ccnc(Nc2cccc(-c3ccc(CN4CCC(C(=O)O)CC4)s3)n2)c1 [Compound B-106]
5,100 to 1000,Cc1ccnc(Nc2cccc(-c3ccc(CN4CCCc5ccc(C(=O)O)cc54)s3)n2)c1 [Compound B-110]
